Like-named read-outs stand apart in the source and are kept apart here.
How the values were obtained:
AhR = target: T1, AhR (Homo sapiens, UniProt P35869); assay: AhR activation, pDRE3 luciferase transient transfection in LNCaP cells; type: cell-based
T1 construct: LNCaP cells were transfected with pDRE3, treated with various compounds and luciferase activity was determined; endogenous in cells; host or cells: LNCaP
T1 sequence (P35869 11-848): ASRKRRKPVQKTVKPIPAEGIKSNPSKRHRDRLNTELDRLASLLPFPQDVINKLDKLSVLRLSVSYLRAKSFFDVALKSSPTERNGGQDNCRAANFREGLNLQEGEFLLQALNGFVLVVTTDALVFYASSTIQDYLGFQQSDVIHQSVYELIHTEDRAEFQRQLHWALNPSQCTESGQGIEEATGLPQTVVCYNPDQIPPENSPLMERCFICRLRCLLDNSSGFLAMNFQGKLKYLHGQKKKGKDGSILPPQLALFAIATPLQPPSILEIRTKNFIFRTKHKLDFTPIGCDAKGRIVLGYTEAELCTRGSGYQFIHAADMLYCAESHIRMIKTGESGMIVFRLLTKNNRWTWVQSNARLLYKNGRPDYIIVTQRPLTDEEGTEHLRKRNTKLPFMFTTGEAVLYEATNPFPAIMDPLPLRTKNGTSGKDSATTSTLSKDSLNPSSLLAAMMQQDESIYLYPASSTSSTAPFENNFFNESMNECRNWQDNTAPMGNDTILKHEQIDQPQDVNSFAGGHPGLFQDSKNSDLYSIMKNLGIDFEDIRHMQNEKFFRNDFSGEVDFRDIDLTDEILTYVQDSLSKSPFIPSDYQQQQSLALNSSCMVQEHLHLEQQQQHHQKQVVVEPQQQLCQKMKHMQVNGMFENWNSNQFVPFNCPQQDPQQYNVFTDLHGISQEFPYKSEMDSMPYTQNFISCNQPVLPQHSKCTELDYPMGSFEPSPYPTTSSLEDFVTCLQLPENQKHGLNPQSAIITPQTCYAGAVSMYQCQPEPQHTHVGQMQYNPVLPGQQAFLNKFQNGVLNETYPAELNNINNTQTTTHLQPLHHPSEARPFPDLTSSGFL
Procedure: (§1) After 24 h, cells were transfected using Lipofectamine and Plus reagents (Invitrogen) according to manufacturer's instructions. LNCaP and ZR-75 cells were transfected with 500 ng/well of either reporter plasmid, and 250 ng/well of pcDNA3.1-β-gal (Invitrogen) as the internal control. In addition, ZR-75 cells were transfected with 500 ng hAR. Twenty-four hours after treatment, cells were harvested by scraping with 200 μL/well of reporter lysis buffer. Lysates were centrifuged at 40,000 g and luciferase and β-galactosidase activity was assayed with 30 μL of the supernatant extract per sample using a Lumicount luminometer (PerkinElmer, Boston, Mass.). Luciferase activity was normalized to β-galactosidase activity for each transfection well.
LNCaP cells were transfected with pDRE3, treated with various compounds and luciferase activity was determined as described in the above Examples.

LNCaP cells = type: cell-based, human
Procedure: After trypsinization and low-speed centrifugation, LNCaP cells were resuspended and counted using a Coulter cell counter (Beckman Coulter, Fullerton, Calif.). Cells were seeded at a density of 5×10^4/35-mm well using DME-F12 without phenol red, supplemented with 2.5% charcoal-stripped fetal bovine serum (FBS). Twenty-four hours after seeding, initial treatment was applied and then subsequently reapplied with fresh medium every two days until harvesting by trypsinization. Cells were counted after harvesting using a Coulter counter.

[1] = test system: androgen-responsive probasin gene promoter (pPB); type: cell-based, human
Procedure: as §1, with “ZR-75 human breast cancer and LNCaP human prostate cancer cells were obtained from American Type Culture Collection (Manassas, Va.) and were maintained in RPMI 1640 medium supplemented with 10% FBS, 1% antibiotic/antimycotic solution, 1.5 g/L sodium bicarbonate, and 10 mM HEPES, final pH of 7.4. Cells were seeded at 2.75×10^5 per 22-mm well in DME-F12 without phenol red, supplemented with 2.5% charcoal-stripped fetal bovine serum (FBS). After” for “After”

[2] = test system: LNCaP prostate cancer cells; type: cell-based, human
Procedure: Cells were analyzed on a FACS Calibur (Becton Dickinson, San Jose, Calif.) flow cytometer, equipped with a 15 mW air-cooled argon laser, using CellQuest (Becton Dickinson) acquisition software. Propidium iodide (PI) fluorescence was collected through a 585/42-nm bandpass filter, and list mode data were acquired on a minimum of 12,000 single cells defined by a dot plot of PI-width versus PI-area. Data analysis was performed in ModFit LT (Verity Software House, Topsham, Me.) using PI-width versus PI-area to exclude cell aggregates.
The effects of TCDD on cell cycle progression was also determined in LNCaP cells treated with 1.0, 10 and 100 nM TCDD for 48 h followed by FACS analysis (Table 1).

AR [3] = assay: AR protein levels in LNCaP cells by Western blot; type: cell-based, human; details: 6 h
Procedure: Cells were harvested 6 h after treatment using 200 μL/22-mm well of ice cold lysis buffer (50 mM HEPES, pH 7.5, 500 mM NaCl, 10% (v/v) glycerol, 1% (v/v) Triton-X 100, 1.5 mM MgCl2, 1 mM EGTA) (McDougal et al., 2001). Lysates were centrifuged at 40,000 g, and supernatant was collected as extract. Whole cell extracts (50 μg/sample) were separated by electrophoresis on a tiered 7.5% (top)/12.5% (bottom) SDS-polyacrylamide gel and transferred to PVDF membrane (Bio-Rad, Richmond, Calif.). The membrane was blocked with 5% milk (m/v) in tris-buffered saline 0.05% Tween (TBST). Membranes were incubated with primary antibodies for AR (sc-7305), cyclin D1 (sc-718), or p27 (sc-528) (each from Santa Cruz Biotechnology, Santa Cruz, Calif.) at 1:1000 in 5% milk/TBST for 3 h. Membranes were washed twice in TBST. Horseradish peroxidase (HRP)-conjugated secondary antibodies were applied at 1:5000 in 5% milk/TBST for 1 h. After two TBST washes, PVDF-bounded antibodies were detected using a chemiluminescence kit (Western Lightning, PerkinElmer), ImageTek-H film (American X-Ray and Medical Supply, Rancho Cordova, Calif.) and an autoprocessor (Hope Macro-Med, Warminster, Pa.). Quantitation of the Western blot was performed using a Sharp JX-330 scanner (Sharp, Mahwah, N.J.) and Zero-D software (Scanalytics, Billerica, Mass.).

AR [4] = target: T2, AR (Homo sapiens, UniProt P10275, T878A); type: cell-based; details: LNCaP
T2 construct: AR protein levels in whole cell lysates were determined by Western blot analysis; endogenous in cells; host or cells: LNCaP
T2 sequence (P10275 1-920 T878A): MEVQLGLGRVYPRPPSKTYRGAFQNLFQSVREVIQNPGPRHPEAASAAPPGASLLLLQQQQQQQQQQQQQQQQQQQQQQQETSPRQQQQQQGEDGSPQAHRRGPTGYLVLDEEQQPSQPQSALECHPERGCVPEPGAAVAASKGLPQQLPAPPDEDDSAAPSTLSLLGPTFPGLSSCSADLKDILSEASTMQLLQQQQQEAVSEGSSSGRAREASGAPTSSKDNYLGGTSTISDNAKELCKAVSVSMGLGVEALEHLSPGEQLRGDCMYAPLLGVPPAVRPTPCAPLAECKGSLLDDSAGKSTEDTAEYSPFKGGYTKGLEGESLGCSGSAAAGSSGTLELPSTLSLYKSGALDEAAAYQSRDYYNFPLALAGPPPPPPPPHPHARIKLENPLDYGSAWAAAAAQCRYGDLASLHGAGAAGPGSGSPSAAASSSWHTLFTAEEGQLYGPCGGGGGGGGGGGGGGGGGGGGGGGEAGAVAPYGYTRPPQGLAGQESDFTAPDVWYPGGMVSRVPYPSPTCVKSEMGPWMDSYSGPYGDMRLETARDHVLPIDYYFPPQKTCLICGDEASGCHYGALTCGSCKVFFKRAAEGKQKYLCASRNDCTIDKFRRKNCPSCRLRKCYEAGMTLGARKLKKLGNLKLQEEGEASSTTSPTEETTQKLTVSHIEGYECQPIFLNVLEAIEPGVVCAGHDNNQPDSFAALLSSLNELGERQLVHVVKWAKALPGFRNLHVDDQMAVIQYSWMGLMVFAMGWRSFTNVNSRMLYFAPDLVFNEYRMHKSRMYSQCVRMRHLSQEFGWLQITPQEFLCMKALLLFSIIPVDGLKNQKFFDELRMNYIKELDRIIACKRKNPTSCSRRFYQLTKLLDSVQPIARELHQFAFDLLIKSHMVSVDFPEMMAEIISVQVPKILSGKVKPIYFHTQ
Procedure: as §1
Next, LNCaP cells were transfected with pARR3 construct that contained three tandem (3) copies of the probasin androgen response element. The transfected cells were treated with hormone or AhR agonist alone or in combination and luciferase activity was determined as described in the above examples.

AR [5] = target: T2, AR; type: cell-based; details: LNCaP, pPB, HPTE 10 μM
Procedure: as §1
The transfected cells were then treated with hormone or AhR agonist alone or in combination and luciferase activity was determined as described in the above examples.

## C[C@]12CCC(=O)C[C@@H]1CC[C@@H]1[C@@H]2CC[C@]2(C)[C@@H](O)CC[C@@H]12 [DHT, dihydrotestosterone]
AhR; pDRE3, 10 nM
  luciferase activity induction compared to solvent control (DMSO): did not significantly induce activity
AhR; pDRE3, hormone in combination with 6-MCDF
  effect on 6-MCDF-induced luciferase activity: significantly inhibited
LNCaP cells
  hormone-induced cell growth: not observed
[1]
  reporter gene activity: did not activate
[2]
  Percent Distribution G0/G1: 73.400 ± 1.179%
  Percent Distribution G2/M: 9.433 ± 1.011%
  Percent Distribution S: 17.167 ± 0.296%
  cell cycle distribution, difference between solvent (DMSO) and DHT: minimal differences

## C[C@]12CC[C@@H]3c4ccc(O)cc4CC[C@H]3[C@@H]1CC[C@@H]2O [E2, 17β-estradiol]
[1]; ZR-75 cells, pPB alone
  reporter gene activity: did not activate

## C[C@]12CC[C@@H]3c4ccc(O)cc4C[C@@H](CCCCCCCCC[S+]([O-])CCCC(F)(F)C(F)(F)F)[C@H]3[C@@H]1CC[C@@H]2O (stereo partly shown) [ICI 182780]
AR [3]
  AR levels in combination with DHT compared to DHT alone: not decreased
  AR levels in combination with E2 compared to E2 alone: not decreased
AR [3]; DHT 10 nM, E2 10 nM, TCDD 10 nM, 6-MCDF 2 μM, HPTE 10 μM
  AR protein levels, compound alone: increased
AR [4]; pARR3, cotreatment with DHT
  effect on DHT-induced luciferase activity: inhibited
AR [4]; pARR3, cotreatment with E2
  effect on E2-induced luciferase activity: inhibited
AR [5]; cotreatment with 10 nM DHT, MCDF 2 μM
  effect on DHT-induced luciferase activity: only minimal inhibition
AR [5]; cotreatment with 10 nM E2
  effect on E2-induced luciferase activity: significantly inhibited

— patent US20050143450A1, “Alkyl PCDF as a treatment for prostate cancer” (priority 2002, published 2005)
